Experimental data from paper PMC12078333, “Pharmacokinetic evaluation and bioavailability of KPT-335 (Verdinexor) in cats” (Frontiers in Veterinary Science, 2025).
Like-named read-outs stand apart in the source and are kept apart here.

Tests used:
[1] = cat, in vivo
Protocol: Based on the dose administered in dogs, the selection of dosages for evaluating KPT-335 in cats was calculated using the Km factor, which adjusts drug doses across species based on body surface area (BSA) ([16]). […] For oral (p.o.) administration, single doses of 1 mg/kg BW and 2 mg/kg BW were tested across two groups. Additionally, an oral capsule group was administered at 0.2 mg/kg BW. […] The maximum safe dosage for dogs was determined to be 1.75 mg/kg BW, based on dosage conversion, the maximum safe dosage for cats was determined to be 2.33 mg/kg BW. Thus, we categorized the dosages as follows: 2 mg/kg BW was designated as the oral high-dose group, 1 mg/kg BW as the oral medium-dose group, and 0.2 mg/kg BW (1/10 of the recommended dose) as the oral low-dose group. These doses were determined based on the maximum safe dose in dogs and the solubility limitations of the drug. The smallest commercially available tablet contained 2.5 mg of KPT-335 and could not be divided, which meant that only whole tablets could be administered. Consequently, the 0.2 mg/kg BW dose could not be accurately achieved and was excluded from the tablet group trials. Only the 1 mg/kg BW and 2 mg/kg BW doses were included in the tablet groups. […]

[2] = Solubility of KPT-335 (pH dependence, unpublished data); format: physicochemical
[3] = Adverse reaction assessment in test cats (body weight, behavior, coat gloss); format: in vivo; settings: all tested cats, i.v. 1 mg/kg BW and p.o. 0.2–2 mg/kg BW, single dose
Protocol: In this study, a parallel trial design was employed, 42 adult domestic cats (21 males and 21 females), aged 1 to 2 years and weighing 2.5 ± 0.25 kg. Cats were grouped by random number, with half male and female in each group, and all cats were determined to be systemically healthy during an initial screening visit 1 week prior to the experiment. They were acclimatized to the laboratory environment for 7 days before the study commenced. During this period, they were kept in solitary cages with free access to water. Cats in the fasting group were deprived of food for 12 h prior to and 2 h following drug administration, while those in the feeding group were fed twice a day. Food and water sources were consistent throughout the trail. During and at the end of the experiment, we systematically assessed the adverse reactions by recording parameters such as body weight, behavior, and coat gloss in all test cats both before and after the trial. These observations were conducted to evaluate whether any adverse reactions occurred. All procedures were reviewed and approved by the Institutional Animal Care and Use Committee of China Agricultural University (11305-23-E-002).

[4] = dogs; cited from earlier work

SMILES: O=C(/C=C\n1cnc(-c2cc(C(F)(F)F)cc(C(F)(F)F)c2)n1)NNc1ccccn1 [KPT-335]
- maximum safe dosage [1]: 2.33 mg/kg BW
- aqueous solubility [2]: low aqueous solubility
- lower solubility at pH 3.8 versus pH 1.5 ([2]; unpublished data): 50 fold
- adverse reactions [3]: no adverse reactions
- maximum safe dosage [4]: 1.75 mg/kg BW
